Assay results published in US20020182112A1, “In vivo method for measuring binding of chemical actives to skin or specific constituents of skin” (Unilever Home & Personal Care USA, Division of Conopco, Inc., priority 2001, published 2002).

Molecular target: Bovine Serum Albumim (BSA) (Bos taurus, UniProt P02769)
Experiment: Pyranine fluorescence in BSA solution: replacement of pyranine from BSA binding sites by added surfactant
Details: for ratio of the fluorescence intensities 509 nm / 426 nm: no surfactant; for ratio of the fluorescence intensities from the deprotonated and protonated state (509 nm / 426 nm): pyranine 1.0×10^−8 M in 50 mM Hepes buffer pH 6.7, BSA 2.5 mg/ml, surfactant added at weight fraction 4×10^−5
Experimental: Fluorescence spectra of pyranine in solutions and on skin were obtained using a Perkin Elmer LS50B fluorometer. In the case of spectra taken on skin, the fiber optic probe accessory was used.
All spectra were taken at pyranine concentrations of 1.0×10^−8 M in 50 mM Hepes buffer (aqueous buffer solution with pH 6.7). Bovine Serum Albumim (BSA) concentrations were 2.5 mg/ml. Surfactant was added at weight fractions of 4×10^−5.
In order to test the applicability of pyranine fluorescence to monitor the binding of surfactants to proteins, applicants studied the effect of added surfactant on the fluorescence spectrum of aqueous solutions of pyranine and BSA. […] This effect can be explained by the replacement of pyranine molecules bound to BSA by SDS molecules leading to an increased concentration of pyranine in free solution and therefore a relative increase in intensity of the fluorescence from the deprotonated state. The ratio of the fluorescence intensities from the deprotonated and protonated site is a measure of the ability of a surfactant to replace pyranine from BSA binding sites.

Chain of Bovine Serum Albumim (BSA) (P02769 25-607): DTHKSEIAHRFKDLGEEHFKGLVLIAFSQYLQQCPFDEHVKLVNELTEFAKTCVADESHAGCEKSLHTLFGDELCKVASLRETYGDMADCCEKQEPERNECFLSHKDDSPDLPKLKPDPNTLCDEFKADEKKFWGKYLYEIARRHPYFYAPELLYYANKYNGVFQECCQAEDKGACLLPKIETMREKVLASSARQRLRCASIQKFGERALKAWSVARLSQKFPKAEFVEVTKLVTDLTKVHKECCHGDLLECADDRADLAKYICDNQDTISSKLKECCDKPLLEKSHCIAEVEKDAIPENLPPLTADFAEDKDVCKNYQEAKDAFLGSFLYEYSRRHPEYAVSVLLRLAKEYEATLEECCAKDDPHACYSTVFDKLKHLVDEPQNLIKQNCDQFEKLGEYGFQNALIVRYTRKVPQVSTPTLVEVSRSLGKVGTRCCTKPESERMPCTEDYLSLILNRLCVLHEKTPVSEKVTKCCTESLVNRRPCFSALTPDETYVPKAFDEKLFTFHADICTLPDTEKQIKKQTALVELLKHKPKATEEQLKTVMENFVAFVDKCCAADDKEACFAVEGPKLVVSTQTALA

| Molecule | ratio of the fluorescence intensities from the deprotonated and protonated state (509 nm / 426 nm) | further results |
| --- | --- | --- |
| O=S(=O)(O)c1cc(O)c2ccc3c(S(=O)(=O)O)cc(S(=O)(=O)O)c4ccc1c2c34 [Pyranine, 8-hydroxyl-1 ,3,6-pyrene-trisulfonic acid] | – | ratio of the fluorescence intensities 509 nm / 426 nm (pyranine 1.0×10^−8 M in 50 mM Hepes buffer pH 6.7, no BSA): 8.03; ratio of the fluorescence intensities 509 nm / 426 nm (pyranine 1.0×10^−8 M in 50 mM Hepes buffer pH 6.7 with BSA 2.5 mg/ml): 1.17 |
| CCCCCCCCCCCCOS(=O)(=O)[O-].[Na+] [SDS, sodium dodecyl sulphate] | 2.23 | effect of added surfactant on the fluorescence spectrum of pyranine and BSA (FIG. 2) (50 mM Hepes buffer, 2.5 mg/ml BSA, 4×10^−5 weight fraction SDS): significant increase of the relative intensity of the fluorescence from the deprotonated state |
| CCCCCCCCCCCC(=O)[O-].[Na+] [Sodium Laurate] | 2.13 | – |
| Cocamilopropyl Betaine | 1.56 | – |
| Sodiumlauryl Ether Sulfate | 2.12 | – |
| alkylpolyglycoside [APG] | 1.34 | – |
